# Reference: patent US7393834B2, “LHRH-antagonists in the treatment of fertility disorders” (AEterna Zentaris GmbH, priority 1996, dated 2008)
# Entries after “also recorded” stand apart in the source; their conditions may differ. Where a SMILES comes first, the peptide text is derived from it. [ ]: non-standard residue; d: D form. dPhe(4-Cl) = N[C@H](Cc1ccc(Cl)cc1)C(=O)O; d2Nal = N[C@H](Cc1ccc2ccccc2c1)C(=O)O; dCit = NC(=O)NCCC[C@@H](N)C(=O)O; d3Pal = N[C@H](Cc1cccnc1)C(=O)O
# What was measured:
# [1] = test system: premature LH surges; conditions: short term treatment, first clinical trials; cited from earlier work
# [2] = test system: controlled ovarian stimulation (COS); assay: Combination of Cetrorelix, clomifen citrate and gonadotrophins for hormonal stimulation for IVF/ICSI; format: in vivo, human; conditions: for fertilization rates: ICSI
# Procedure: Combination of the GnRH antagonist Cetrorelix, clomifen citrate(CC) and gonadotrophins for hormonal stimulation for IVF/ICSI. New controlled ovarian stimulation (COS) protocols become possible, which combine the advantages of clomifen citrate/gonadotrophin stimulation and pituitary suppression with Cetrorelix. COS was started on day 2 after spontaneous menstrual bleeding using 100 mg CC per day for 5 or 7 days. The antagonist Cetrorelix (0.25 mg s.c.) was given starting on stimulation day 6 combined with either urinary hMG or recombinant FSH (3 ampoules/d) in a prospective randomized way. After two days of gonadotrophin injection, the dose was individualized. Human chorionic gonadotropin was given for ovulation induction, if at least 3 follicles were ≧17 mm in diameter. In total, 30 patients were included in the study. 15 were randomized in each group. Intra cytoplasmatic sperm injection (ICSI) was applied in each case.
# [3] = test system: premature LH surge; assay: Phase II clinical trial of Cetrorelix in controlled ovarian stimulation (COS/ART); format: in vivo, human; conditions: for babies born by the end of May 1996: by end of May 1996; for minimal effective dose, Dose/Day / no effect dose, Dose/Day: phase II dose finding
# Procedure: The results of a phase II clinical trial are shown in Table I. A total of […] patients were treated.
# During multiple dosing, the mean days of Cetrorelix application is 6 days. 25 babies were born by the end of May 1996 (7 following multiple doses; 18 following single/dual doses).
# The hormone levels of luteinizing hormone (LH) (μg/l) (∘), follicular stimulating hormone (FSH) (μg/l) (+), progesterone (μg/l) (●), and oestradiol (E2) (ng/l) (▾) were measured in patient number 21L07 at time intervals one month (Nov. 10, 1995) and four consecutive days before (Dec. 05, 1995-Dec. 09, 1995) a dual dose regimen of Cetrorelix (3 mg) was administered subcutaneously on Dec. 10, 1995 and Dec. 11, 1995. The patient's LH, FSH, progesterone and oestradiol levels were measured afterward between Dec. 11, 1995 and Dec. 14, 1995 wherein ovulation in the patient was induced with human chorionic gonadotrophin (HCG) on Dec. 14, 1995. The patients LH, FSH, progesterone, and oestradiol levels were also measured after HCG treatment through ovum pick up (OPU; Dec. 16, 1995), and embryo transfer (ET) on […]. Hormone levels were also measured on the 4th and (Dec. 22, 1995) and 16th day after ET(Jan. 3,1996).
# 238 patients were treated with Cetrorelix by subcutaneous injection of Cetrorelix Acetat-Lyophilisat.
# 134 patients were treated with multiple doses and 104 patients with single or dual doses. The multiple doses are 0.25 mg/day or higher. […]
# [4] = test system: follicular growth / pituitary; assay: Animal experiments and clinical studies with Cetrorelix in normal, unstimulated cycles; format: in vivo
# Text: These low dosage levels present new possibilities for manipulating the time of ovulation during a normal, not exogenous gonadotropin-stimulated cycle, without affecting the viability of the growing follicle. In case of inadequate follicular growth related to treatment with LHRH-antagonists, low dose and short term administration of gonadotrophin or other trophic compounds will compensate for these effects. Subsequently, by stopping the LHRH-antagonist treatment, it is possible to let the normal ovulation occur or to induce ovulation by exogenous manipulation, if necessary. Ovulation induction was induced by the administration of standard HCG or by administration of LHRH and/or LHRH agonistic analogs. These described treatment alternatives are a departure from existing protocols, since they are possible only if preceded by treatment for LH-surge-control with an LHRH-antagonist. In animal and clinical studies with Cetrorelix it was shown that the responsiveness of the pituitary to LHRH or agonistic analogs is preserved under these conditions of treatment. Without this treatment, the pituitary cannot respond after agonistic pretreatment for LH-surge control due to receptor down-regulation. In addition, the possible use of ovulation inducing agents other than HCG results in a-reduced incidence of ovarian hyperstimulation syndrome.
# [5] = all phase II patients, both regimens
# [6] = single patient, dual dose regimen of 3 mg s.c.
smiles,measurement,setting,value
CC(=O)N[C@H](Cc1ccc2ccccc2c1)C(=O)N[C@H](Cc1ccc(Cl)cc1)C(=O)N[C@H](Cc1cccnc1)C(=O)N[C@@H](CO)C(=O)N[C@@H](Cc1ccc(O)cc1)C(=O)N[C@H](CCCNC(N)=O)C(=O)N[C@@H](CC(C)C)C(=O)N[C@@H](CCCNC(=N)N)C(=O)N1CCC[C@H]1C(=O)N[C@H](C)C(N)=O [Cetrorelix] (Ac-[d2Nal][dPhe(4-Cl)][d3Pal]SY[dCit]LRP[dA]-NH2),premature LH surges during stimulated cycles,[1],complete avoidance of premature LH surges
same,ovarian hyperstimulation syndrome (OHSS),"[2]; 30 patients, both groups",no case of OHSS was observed
same,clinical pregnancy rate/transfer,[2]; hMG group,4/14
same,metaphase II oocytes,[2]; hMG group,74%
same,oocytes per cycle retrieved,[2]; hMG group,7.7±3.8
same,transfer rate/cycle,[2]; hMG group,87%
same,fertilization rates,[2]; hMG group,42%
same,clinical pregnancy rate/transfer,[2]; recombinant FSH group,1/11
same,metaphase II oocytes,[2]; recombinant FSH group,80%
same,oocytes per cycle retrieved,[2]; recombinant FSH group,6.4±2.6
same,transfer rate/cycle,[2]; recombinant FSH group,80%
same,fertilization rates,[2]; recombinant FSH group,53%
same,"fertilization rates, follicle and oocytes quality",[3]; after both posologies (single and multiple dose),good fertilization rates
same,pregnancy rates,[3]; after both treatments (single and multiple dose),good
same,babies born by the end of May 1996,[3]; all patients,25
same,pregnancies obtained (number),[3]; [5],71 pregnancies
same,pregnancies obtained (rate),[3]; [5],30%
same,babies born,[3]; following multiple doses,15
same,babies born by the end of May 1996,[3]; following multiple doses,7
same,babies born,[3]; following single/dual doses,29
same,babies born by the end of May 1996,[3]; following single/dual doses,18
same,pregnancies (rate),"[3]; multiple dose regimen, 134 patients",28.4%
same,pregnancies (number),"[3]; multiple dose regimen, of 134 patients",38
same,"minimal effective dose, Dose/Day","[3]; multiple dose, 3-7/14 days","0.25 min. effect, dose mg"
same,"no effect dose, Dose/Day","[3]; multiple dose, 3-7/14 days",0.10 no effect. dose mg
same,premature LH surge,"[3]; patients undergoing COS/ART, multiple doses of 0.25 mg or higher or single dose of 3 mg or higher, s.c.",prevention of any premature LH surge; also recorded: No premature LH surge
same,"minimal effective dose, Dose/Day",[3]; single dose (1 day),3 min. effective dose mg
same,"no effect dose, Dose/Day",[3]; single dose (1 day),2 no effect. Dose mg
same,duration of effect to prevent a premature LH surge,"[3]; single dose regimen, one injection of 3 mg",up to 6.5 days
same,FSH secretion (FIG. 1),[3]; [6],maintained at a natural level
same,individual estrogen development (FIG. 1),[3]; [6],not affected
same,premature LH surge (FIG. 1),[3]; [6],absolute prevention of any premature LH surge
same,pregnancies (rate),"[3]; single/dual dosage regimen, 104 patients",31.7%
same,pregnancies (number),"[3]; single/dual dosage regimen, of 104 patients",33
same,"normal, unstimulated follicular growth","[4]; multiple or single injections, extremely low dosage levels","arrest of the normal, unstimulated follicular growth"
same,responsiveness of the pituitary to LHRH or agonistic analogs,[4]; under LH-surge-control treatment with the antagonist,preserved
